Structures can show the parent of a compound that is named as a salt.
Tests used:
αvβ1 = αvβ1 (Homo sapiens, UniProt P05556+P06756); assay: Solid Phase Integrin αvβ1 Assay; type: binding
Experimental: (§1) The compounds exemplified in this document were tested for their ability to inhibit αvβ1 and αvβ6 in below described solid phase integrin assays.
Solid Phase Integrin αvβ1 Assay
96-well microtiter plates (4 HBX Immulon; Thermo Fisher Scientific, Waltham, MA) were coated with 100 μL/well of 1 μg/mL recombinant TGFb1-LAP in TBS at 4° C., overnight. The coating solution was removed, and plates were blocked with 200 μL/well of blocking and binding buffer (2% BSA/TBST, 1 mM MnCl2) at room temperature for 1 hr. Blocking buffer was removed and 50 μL of binding buffer and testing compounds were added. 50 μL of diluted αvβ1 (0.2 ug/mL in binding buffer) was added to wells (100 μL/well total) for and plates incubated for 90 min at room temperature. Wells were washed thrice with washing buffer (TBS, 0.05% Tween, 1 mM MnCl2) and plates were incubated with 100 μL/well of a 1:12500 dilution of streptavidin-horseradish peroxidase conjugate (Thermo Fisher Scientific) in binding buffer for 20 min at room temperature. Bound protein was detected using the substrate TMB. The IC50 values for testing compounds were calculated by Levenberg-Marquardt four parameter fitting logistics.

αvβ6 = αvβ6 (Homo sapiens, UniProt P06756+P18564); assay: Solid Phase Integrin αvβ6 Assay; type: binding
αvβ6, sequence (P06756 31-992 limits assumed): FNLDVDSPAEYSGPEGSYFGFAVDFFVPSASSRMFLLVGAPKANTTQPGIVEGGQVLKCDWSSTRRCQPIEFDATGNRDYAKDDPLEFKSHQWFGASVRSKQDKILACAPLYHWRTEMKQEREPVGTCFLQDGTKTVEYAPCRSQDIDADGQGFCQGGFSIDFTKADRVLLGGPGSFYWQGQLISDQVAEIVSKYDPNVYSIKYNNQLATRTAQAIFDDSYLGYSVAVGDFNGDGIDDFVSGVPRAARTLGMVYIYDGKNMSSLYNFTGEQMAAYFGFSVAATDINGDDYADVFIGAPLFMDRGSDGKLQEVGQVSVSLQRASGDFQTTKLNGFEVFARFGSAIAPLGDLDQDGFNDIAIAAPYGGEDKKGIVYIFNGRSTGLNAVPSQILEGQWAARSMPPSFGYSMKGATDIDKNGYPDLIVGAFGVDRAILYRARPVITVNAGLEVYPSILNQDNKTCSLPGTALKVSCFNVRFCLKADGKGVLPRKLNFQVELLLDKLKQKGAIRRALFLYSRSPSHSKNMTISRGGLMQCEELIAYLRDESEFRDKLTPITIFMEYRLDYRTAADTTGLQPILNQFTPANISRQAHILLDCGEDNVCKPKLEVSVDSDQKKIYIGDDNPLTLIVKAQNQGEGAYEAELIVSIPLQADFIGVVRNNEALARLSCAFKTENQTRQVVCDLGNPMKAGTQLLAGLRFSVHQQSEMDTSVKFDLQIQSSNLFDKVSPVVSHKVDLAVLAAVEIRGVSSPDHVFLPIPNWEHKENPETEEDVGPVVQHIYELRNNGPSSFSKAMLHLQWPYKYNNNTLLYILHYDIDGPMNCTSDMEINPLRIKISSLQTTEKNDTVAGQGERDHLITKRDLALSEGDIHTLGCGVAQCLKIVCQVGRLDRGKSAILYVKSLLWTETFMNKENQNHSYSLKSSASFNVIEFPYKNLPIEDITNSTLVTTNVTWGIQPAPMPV
αvβ6, sequence (P18564 22-707 limits assumed): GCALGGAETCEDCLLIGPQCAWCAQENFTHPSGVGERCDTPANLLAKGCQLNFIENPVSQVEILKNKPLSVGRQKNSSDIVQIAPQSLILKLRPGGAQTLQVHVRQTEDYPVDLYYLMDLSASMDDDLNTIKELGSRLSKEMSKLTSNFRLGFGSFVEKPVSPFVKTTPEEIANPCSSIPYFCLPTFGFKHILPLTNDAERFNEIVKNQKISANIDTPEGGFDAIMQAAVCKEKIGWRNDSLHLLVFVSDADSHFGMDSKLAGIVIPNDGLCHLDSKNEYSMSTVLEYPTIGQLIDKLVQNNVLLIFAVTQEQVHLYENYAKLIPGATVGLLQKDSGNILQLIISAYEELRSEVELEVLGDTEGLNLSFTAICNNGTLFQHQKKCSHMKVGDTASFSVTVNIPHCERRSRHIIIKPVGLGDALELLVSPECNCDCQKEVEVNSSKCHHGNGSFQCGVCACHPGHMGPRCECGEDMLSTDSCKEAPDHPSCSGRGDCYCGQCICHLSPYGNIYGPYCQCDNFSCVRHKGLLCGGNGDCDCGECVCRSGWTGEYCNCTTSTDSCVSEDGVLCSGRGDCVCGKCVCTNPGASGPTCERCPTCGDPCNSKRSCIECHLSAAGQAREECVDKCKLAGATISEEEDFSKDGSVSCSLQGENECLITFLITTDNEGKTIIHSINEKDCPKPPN
Experimental: as §1
Solid Phase Integrin αvβ6 Assay
96-well microtiter plates (4 HBX Immulon; Thermo Fisher Scientific, Waltham, MA) were coated with 100 μL/well of 1 μg/mL recombinant TGFb1-LAP in TBS at 4° C., overnight. The coating solution was removed, and plates were blocked with 200 μL/well of blocking and binding buffer (2% BSA/TBST, 1 mM MnCl2) at room temperature for 1 hr. Blocking buffer was removed and 50 uL of binding buffer and testing compounds were added. 50 μL of diluted αvβ6 (0.2 μg/mL in binding buffer) was added to wells (100 uL/well total) and plates incubated for 1 hr at room temperature. Wells were washed thrice with washing buffer (TBS, 0.05% Tween, 1 mM MnCl2) and plates were incubated with 100 μL/well of a 1:12500) dilution of streptavidin-horseradish peroxidase conjugate (Thermo Fisher Scientific) in binding buffer for 20 min at room temperature. Bound protein was detected using the substrate TMB. The IC50 values for testing compounds were calculated by Levenberg-Marquardt four parameter fitting logistics.

αvβ1, sequence (P06756 31-992 limits assumed): as the sequence (P06756 31-992 limits assumed) above
αvβ1, sequence (P05556 21-728 limits assumed): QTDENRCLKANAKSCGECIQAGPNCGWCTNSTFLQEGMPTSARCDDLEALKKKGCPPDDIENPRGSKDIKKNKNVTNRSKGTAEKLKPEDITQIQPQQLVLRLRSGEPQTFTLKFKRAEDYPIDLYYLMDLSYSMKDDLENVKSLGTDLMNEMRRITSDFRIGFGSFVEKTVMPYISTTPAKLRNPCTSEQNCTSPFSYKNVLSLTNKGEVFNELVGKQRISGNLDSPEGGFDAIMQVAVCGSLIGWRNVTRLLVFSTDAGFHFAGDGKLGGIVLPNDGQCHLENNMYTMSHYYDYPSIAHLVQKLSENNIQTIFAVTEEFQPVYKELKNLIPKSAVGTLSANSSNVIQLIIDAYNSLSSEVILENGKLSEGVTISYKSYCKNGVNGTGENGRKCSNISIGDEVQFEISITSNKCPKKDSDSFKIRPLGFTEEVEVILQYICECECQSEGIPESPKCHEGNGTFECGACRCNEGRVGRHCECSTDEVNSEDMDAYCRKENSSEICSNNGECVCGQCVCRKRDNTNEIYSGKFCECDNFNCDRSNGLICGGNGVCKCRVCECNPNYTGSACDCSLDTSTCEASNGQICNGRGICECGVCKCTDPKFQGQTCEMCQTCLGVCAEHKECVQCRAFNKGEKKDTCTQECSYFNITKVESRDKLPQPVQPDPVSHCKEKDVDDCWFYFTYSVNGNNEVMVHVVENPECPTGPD

IC50 (αvβ1) | IC50 (αvβ6) | Compound
> 1000 nM | 100 to 1000 nM | O=C(O)C[C@H](NC(=O)[C@@H]1CCCN(CCCc2ccc3c(n2)NCCC3)C1)c1cccc(C(F)(F)F)c1 (single isomer, unassigned) [Compound 203-A, hydrochloride]
< 100 nM | < 100 nM | O=C(O)C[C@@H](NC(=O)[C@@H]1CCCN(CCCc2ccc3c(n2)NCCC3)C1)c1cccc(C(F)(F)F)c1 (single isomer, unassigned) [Compound 203-B, hydrochloride]
< 100 nM | < 100 nM | O=C(O)C[C@@H](NC(=O)[C@@H]1CCCN(CCCc2ccc3c(n2)NCCC3)C1)c1ccc2c(c1)CCCC2 (single isomer, unassigned) [Compound 204-B]
< 100 nM | < 100 nM | O=C(O)C[C@H](NC(=O)[C@@H]1CCCN(CCCc2ccc3c(n2)NCCC3)C1)c1cccc(N2CC3CCC2CO3)c1 (single isomer, unassigned) [Compound 241-A]
< 100 nM | < 100 nM | O=C(O)C[C@H](NC(=O)[C@@H]1CCCN(CCCc2ccc3c(n2)NCCC3)C1)c1cccc(N2CC3CCC2CO3)c1 (single isomer, unassigned) [Compound 241-B]
< 100 nM | 100 to 1000 nM | O=C(O)C(CNC(=O)[C@@H]1CCCN(CCCc2ccc3c(n2)NCCC3)C1)c1ccc(C2CC2)cc1 (single isomer, unassigned) [Compound 259-B]
100 to 1000 nM | < 100 nM | O=C(O)C[C@H](NC(=O)[C@@H]1CCCN(CCCc2ccc3c(n2)NCCC3)C1)c1ccc2c(c1)CCC2 [Compound 201-A, 3-(2,3-dihydro-1H-inden-5-yl)-3-((R)-1-(3-(5,6,7,8-tetrahydro-1,8-naphthyridin-2-yl)propyl)piperidine-3-carboxamido)propanoic acid hydrochloride]
< 100 nM | < 100 nM | O=C(O)C[C@@H](NC(=O)[C@@H]1CCCN(CCCc2ccc3c(n2)NCCC3)C1)c1ccc2c(c1)CCC2 [Compound 201-B, 3-(2,3-dihydro-1H-inden-5-yl)-3-((R)-1-(3-(5,6,7,8-tetrahydro-1,8-naphthyridin-2-yl)propyl)piperidine-3-carboxamido)propanoic acid hydrochloride]
< 100 nM | < 100 nM | O=C(O)C[C@H](NC(=O)[C@@H]1CCCN(CCCc2ccc3c(n2)NCCC3)C1)c1ccccc1 [Compound 202, (S)-3-phenyl-3-((R)-1-(3-(5,6,7,8-tetrahydro-1,8-naphthyridin-2-yl)propyl)piperidine-3-carboxamido)propanoic acid hydrochloride]
< 100 nM | < 100 nM | O=C(O)C[C@H](NC(=O)[C@@H]1CCCN(CCCc2ccc3c(n2)NCCC3)C1)c1ccc2c(c1)CCCC2 [Compound 204-A, 3-((R)-1-(3-(5,6,7,8-tetrahydro-1,8-naphthyridin-2-yl)propyl)piperidine-3-carboxamido)-3-(5,6,7,8-tetrahydronaphthalen-2-yl)propanoic acid]
< 100 nM | < 100 nM | O=C(O)C[C@H](NC(=O)[C@@H]1CCCN(CCCc2ccc3c(n2)NCCC3)C1)c1cccc(Br)c1 [Compound 205, (S)-3-(3-bromophenyl)-3-((R)-1-(3-(5,6,7,8-tetrahydro-1,8-naphthyridin-2-yl)propyl)piperidine-3-carboxamido)propanoic acid hydrochloride]
< 100 nM | < 100 nM | O=C(O)C[C@@H](NC(=O)[C@@H]1CCCN(CCCc2ccc3c(n2)NCCC3)C1)c1ccc2ccccc2c1 [Compound 206, (R)-3-(naphthalen-2-yl)-3-((R)-1-(3-(5,6,7,8-tetrahydro-1,8-naphthyridin-2-yl)propyl)piperidine-3-carboxamido)propanoic acid hydrochloride]
100 to 1000 nM | 100 to 1000 nM | O=C(O)C[C@H](NC(=O)[C@@H]1CCCN(CCCc2ccc3c(n2)NCCC3)C1)c1ccc2ccccc2c1 [Compound 207, (S)-3-(naphthalen-2-yl)-3-((R)-1-(3-(5,6,7,8-tetrahydro-1,8-naphthyridin-2-yl)propyl)piperidine-3-carboxamido)propanoic acid hydrochloride]
< 100 nM | < 100 nM | O=C(O)C[C@@H](NC(=O)[C@@H]1CCCN(CCCc2ccc3c(n2)NCCC3)C1)c1cc(F)cc(C(F)(F)F)c1 [Compound 208-A, 3-(3-fluoro-5-(trifluoromethyl)phenyl)-3-((R)-1-(3-(5,6,7,8-tetrahydro-1,8-naphthyridin-2-yl)propyl)piperidine-3-carboxamido)propanoic acid]
> 1000 nM | 100 to 1000 nM | O=C(O)C[C@H](NC(=O)[C@@H]1CCCN(CCCc2ccc3c(n2)NCCC3)C1)c1cc(F)cc(C(F)(F)F)c1 [Compound 208-B, 3-(3-fluoro-5-(trifluoromethyl)phenyl)-3-((R)-1-(3-(5,6,7,8-tetrahydro-1,8-naphthyridin-2-yl)propyl)piperidine-3-carboxamido)propanoic acid]
< 100 nM | < 100 nM | O=C(O)C[C@H](NC(=O)[C@@H]1CCCN(CCCc2ccc3c(n2)NCCC3)C1)c1cccc(Oc2ccccc2)c1 [Compound 209-A, 3-(3-phenoxyphenyl)-3-((R)-1-(3-(5,6,7,8-tetrahydro-1,8-naphthyridin-2-yl)propyl)piperidine-3-carboxamido)propanoic acid]
< 100 nM |  | CC1(C)CN(c2cccc([C@@H](NC(=O)[C@@H]3CCCN(CCCc4ccc5c(n4)NCCC5)C3)C(F)(F)C(=O)O)c2)CCO1 [Compound 300, (R)-3-(3-(2,2-dimethylmorpholino)phenyl)-2,2-difluoro-3-((R)-1-(3-(5,6,7,8-tetrahydro-1,8-naphthyridin-2-yl)propyl)piperidine-3-carboxamido)propanoic acid]
 | 100 to 1000 nM | O=C(N[C@@H](CNC(=O)[C@@H]1CCCN(CCCc2ccc3c(n2)NCCC3)C1)C(=O)O)c1c(F)cccc1F [Compound 310]

IC50 (αvβ1) | IC50 (αvβ6) | Compound
 | < 100 nM | O=C(NC[C@@H](C(=O)O)c1ccc(-c2ccccc2)cc1)[C@@H]1CCCN(CCCc2ccc3c(n2)NCCC3)C1 [Compound 343]
 | < 100 nM | O=C(N[C@@H](CNC(=O)[C@@H]1CCCN(CCCc2ccc3c(n2)NCCC3)C1)C(=O)O)c1cccc(C2CC2)c1 [Compound 370]
< 100 nM |  | CC(C)CNC(=O)[C@@H]1CCCC[C@H]1C(=O)N[C@@H](CNC(=O)[C@@H]1CCCN(CCCc2ccc3c(n2)NCCC3)C1)C(=O)O [Compound 526]
< 100 nM |  | O=C(O)C[C@H](NC(=O)[C@@H]1CCCN(CCCc2ccc3c(n2)NCCC3)C1)c1cccc(-n2cccn2)c1 [Compound 537]
 | < 100 nM | O=C(Cc1ccccc1Cl)N[C@@H](CNC(=O)[C@@H]1CCCN(CCCc2ccc3c(n2)NCCC3)C1)C(=O)O [Compound 545]
 | < 100 nM | O=C(N[C@@H](CNC(=O)[C@@H]1CCCN(CCCc2ccc3c(n2)NCCC3)C1)C(=O)O)c1ccc2c(c1)CCC2 [Compound 548]
 | < 100 nM | O=C(Cc1ccccc1)N[C@@H](CNC(=O)[C@@H]1CCCN(CCCc2ccc3c(n2)NCCC3)C1)C(=O)O [Compound 550]
< 100 nM |  | O=C(O)C[C@H](NC(=O)[C@@H]1CCCN(CCCc2ccc3c(n2)NCCC3)C1)c1cc(F)cc(C2CC2)c1 [Compound 558]
 | < 100 nM | O=C(NC[C@H](Nc1cc(-c2ccccc2)ncn1)C(=O)O)[C@@H]1CCCN(CCCc2ccc3c(n2)NCCC3)C1 [Compound 564]
 | < 100 nM | O=C(NC[C@H](Nc1ccccc1C1CC(F)(F)C1)C(=O)O)[C@@H]1CCCN(CCCc2ccc3c(n2)NCCC3)C1 [Compound 590]
 | < 100 nM | O=C(NC[C@H](Nc1cccnc1C1CC(F)(F)C1)C(=O)O)[C@@H]1CCCN(CCCc2ccc3c(n2)NCCC3)C1 [Compound 591]
 | < 100 nM | O=C(NC[C@H](Nc1cccc(C2CC(F)(F)C2)c1)C(=O)O)[C@@H]1CCCN(CCCc2ccc3c(n2)NCCC3)C1 [Compound 592]
 | 100 to 1000 nM | CC1(C)CN(c2cccc([C@H](CNC(=O)[C@@H]3CCCN(CCCc4ccc5c(n4)NCCC5)C3)C(=O)O)c2)CCO1 [Compound 594]
 | < 100 nM | CC1(C)COCCN1c1cccc([C@H](CNC(=O)[C@@H]2CCCN(CCCc3ccc4c(n3)NCCC4)C2)C(=O)O)c1 [Compound 596]
 | > 1000 nM | CC1(C)CCCN(c2cccc([C@H](CNC(=O)[C@@H]3CCCN(CCCc4ccc5c(n4)NCCC5)C3)C(=O)O)c2)C1 [Compound 598]
 | 100 to 1000 nM | CC1(C)CCN(c2cccc([C@H](CNC(=O)[C@@H]3CCCN(CCCc4ccc5c(n4)NCCC5)C3)C(=O)O)c2)CC1 [Compound 600]
 | 100 to 1000 nM | C[C@@H]1CN(c2cccc([C@H](CNC(=O)[C@@H]3CCCN(CCCc4ccc5c(n4)NCCC5)C3)C(=O)O)c2)C[C@H](C)O1 [Compound 602]
